{"source": "patent US11253531B2", "about": "“Lipid supplements for reducing nerve action potentials” (Nutritional Therapeutics, Inc., priority 2011, dated 2022)", "system": "dorsal root ganglia neurons", "assay": "Field stimulation of cultured neurons, membrane potential by di8ANEPPS fluorescence", "type": "cell-based, rat", "conditions": "caffeine added to NTFL", "text": "The procedure below details a study performed on one type of cultured nerve cells, namely dorsal root ganglia neurons, using a 10% solution of glycerolphospholipids in combination with inulin (NTFL).\nThe cultured cells were then exposed to an aqueous solution of the lipid supplement comprising glycerolphospholipids in combination with inulin, referred to as NTFL nanomicelles.\nThis was used as an indicator of membrane potential instead of microelectrodes because patching these neurons or the use of microelectrodes can be difficult in these studies in the presence of the NTFL nanomicellles solutions.\nTo perform the comparison, electrodes were applied to the bath containing the cultured neurons and field stimulation was provided by passed current through the bath. This caused depolarization of the nerve cells resulting in fluorescence of the di8ANEPPS.", "data": [{"smiles": "Cn1c(=O)c2c(ncn2C)n(C)c1=O", "note": "[caffeine]", "values": [{"measurement": "effect on nerve conduction", "result": "did not appear to have an effect on nerve conduction"}]}]}
